Assay results published in US8022056B2, “Compositions and methods for the treatment of cancer” (Tautatis, Inc, priority 2006, dated 2011).
pIC50: −log10 of the molar value. Read-outs that look alike come from different tables or passages of the source.

Columns and labels:
PKC = assay: Kinase inhibition under standard conditions, PKC; assay type: biochemical
ACHN xenograft = assay: Mouse xenograft model ACHN; assay type: in vivo; conditions: Kidney, CDKN2A; oral twice daily dosing
Description: (§1) The efficacy of the compound of the formula 1 was confirmed in mouse tumor xenograft models, employing the NMRI(nu/nu) strain of mice. For example, cells from the human tumor cell lines MDA-MB-231, U373, and HT29 were pre-incubated subcutaneously in several nude mice to select for the most robustly growing cell population. After having grown to a sufficient size after 2-3 weeks, a piece of about 2 mm^3 volume of the most suitable tumor was transplanted subcutaneously into the region of the thoracic mammary fat pads, an area ensuring a high degree of vascularization of the grafted tissue. […] During the course of the treatment, the weight of the animals and the size of the transplanted tumor was monitored three times a week. […] These doses are best determined separately for each individual mouse strain employed.
(§2) To establish a solid tumour 3×10^6 tumor cells suspended in 100 μl of serum free medium (RPMI) were inoculated subcutaneously into the region of the thoracic mammary fat pads of 5 Male NMRI(nu/nu) mice of 8-10 weeks of age. […] During the course of the treatment body weight changes and tumor growth were recorded three times a week. Growth curves were plotted together with standard deviations and the significance of differences was determined using an unpaired t-test in FIG. 11. […]

[1] = tested on: HT29 colon cancer cell line; assay: Long-term growth inhibition, crystal violet staining; assay type: cell-based, human; conditions: 10 nM
Description: For proliferation assays tumor cell suspensions (100 μl/well) were seeded into 96-well flat bottomed microtitration plates at a density of ca. 15 cells/microscopic field (magnification 320×). After 2-3 days the culture medium was removed by suction and replaced by fresh medium (200 μl/well) containing varying concentrations of the compound of the formula 1 or vehicle (0.5% DMSO). Compound 1 was added as […] concentrated feed solutions. On every plate 16 wells served as controls and 16 wells were used per concentration of 1. After various times of incubation the cells were fixed with glutardialdehyde and stored in a refrigerator. At the end of the assay all plates were processed simultaneously (staining with 0.02% aqueous crystal violet solution (100 μl/well). Excess dye was removed by rinsing the trays with water for 20 min. The stain bound by the cells was redissolved in 70% ethanol (180 μl/well) while shaking the microplates for about 3 hours. Absorbance (proportional to cell mass) was measured at 578 nm using a BIOTEK 309 Autoreader. The results (mean values±standard deviation) were plotted as growth curves.
The HT29 human colon cancer cell line (obtained from ATCC, Rockville, USA) was cultured as above. Treatment with the compound of the formula 1 and analysis of growth inhibition was performed analogous to Example 3.

NCI-H23 xenograft = assay: Mouse xenograft model NCI-H23; assay type: in vivo; conditions: Lung, Ras/p53; oral twice daily dosing
Description: as §1, §2

PKA = assay: Kinase inhibition under standard conditions, PKA; assay type: biochemical
ERK2 = ERK2 (Homo sapiens, UniProt P28482); assay: Kinase inhibition under standard conditions, ERK2; assay type: biochemical
Chain of ERK2 (P28482 whole entry, species assumed): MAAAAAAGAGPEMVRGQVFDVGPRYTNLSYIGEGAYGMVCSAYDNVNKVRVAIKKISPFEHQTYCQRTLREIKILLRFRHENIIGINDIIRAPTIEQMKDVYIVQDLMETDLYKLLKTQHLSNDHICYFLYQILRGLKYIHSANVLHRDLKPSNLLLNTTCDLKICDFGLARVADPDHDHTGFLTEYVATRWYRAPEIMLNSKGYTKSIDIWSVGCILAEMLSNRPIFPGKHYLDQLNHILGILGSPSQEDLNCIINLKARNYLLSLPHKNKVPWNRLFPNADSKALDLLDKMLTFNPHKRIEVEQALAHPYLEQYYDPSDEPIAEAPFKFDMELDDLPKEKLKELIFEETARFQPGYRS

NCI-60 panel cell lines = assay: NCI-60 panel growth inhibition screen; assay type: cell-based; conditions: for GI50: nominal concentration
Excerpt: FIGS. 7a-h show the inhibitory potencies of compound 1 in the cell lines of the NCI panel from various cancers. The growth of cells treated with various concentrations of compound 1 was expressed in reference to untreated controls (100%) after 48 hr exposure. Negative growth values represent cell death. Actual concentrations of compound 1 are about two times lower than nominal due to well binding in the 96-well plate format.
FIG. 8 represents the GI50 (50% growth inhibition, cross-hatch bars) and TGI (total growth inhibition, solid bars) values of all cells in the NCI-60 panel in relation to the attainable free mouse plasma concentration of orally applied compound 1, corrected for the reduction in actual inhibitor concentration by well binding. The oncogenic mutation spectrum of the cell lines is presented at the bottom.
To further exemplify the breadth of anti-tumor activity of compounds 1-4 the NCI-60 panel was screened with compound 1. The spectrum of verified oncogenic driver mutations in these cell lines was recently elucidated to encompass mutations in raf, ras, CDKN2A (cdk inhibitor), p53, PI3K, PTEN, EGFR, APC, FLT3, RB1 among others. Cell lines generally have several of these mutations representative of stage III and IV cancers [Ikediobi et al., Mol. Cancer. Ther. 5, 2606-2612 (2006)]. […] The average concentration for total growth inhibition (TGI) was thus at 200 nM, i.e. about 10-times GI50. At sustained free plasma concentrations in vivo of about 200 nM, that can be achieved with practical forms of oral dosing and in the absence of special formulations, all cell lines would be inhibited by more than 50% without exception, and more than half would show no growth at all or would be killed (FIG. 8).

Compound: CNC(=O)[C@@]1(N)C[C@H]2O[C@]1(C)n1c3ccccc3c3c4c(c5c6ccccc6n2c5c31)C(=O)NC4 [Compound 1]
- pIC50 (PKC): 5.89
- Mean % Inhibition (ACHN xenograft): 86%
- N tumors with no/neg. growth (ACHN xenograft): 5 of 10
- proliferation of HT29 cells [1]: sufficient to block the proliferation
- Mean % Inhibition (NCI-H23 xenograft): 92%
- N tumors with no/neg. growth (NCI-H23 xenograft): 5 of 10
- pIC50 (PKA): 6.52
- pIC50 (ERK2): 7.19
- average concentration for total growth inhibition (TGI) (NCI-60 panel cell lines; 48 hr exposure): 200 nM
- cell kill of HT29 cell line in vitro (NCI-60 panel cell lines; HT29, highest exposures): cannot be killed
- anti-proliferative activity across panel (NCI-60 panel cell lines; lung, colon, brain, skin, ovarian, kidney, prostate, breast cancer lines): Significant anti-proliferative activity was seen in all cell lines
- GI50 (NCI-60 panel cell lines; 48 hr exposure, read-out: GI50 potency range across cell lines): ≤ 150 nM
- GI50 (NCI-60 panel cell lines; 48 hr exposure, read-out: average 50% growth inhibition (GI50) across all cell lines): 32 nM
